# Laboratory results from PMC9403976, “Elucidating the path to Plasmodium prolyl-tRNA synthetase inhibitors that overcome halofuginone resistance” (Nature Communications, 2022).
# Where “and” joins values, the source holds several entries; their conditions need not be identical. Equal values may be shown once. Read-outs that look alike come from different tables or passages of the source.
# Key:
# PfcProRS = biological target: T1, PfcProRS (Plasmodium falciparum, UniProt Q8I5R7); assay type: binding; settings: for dose-response signal (normalized), SI Fig 8: single replicates
# T1 construct: made in house; host or cells: E. coli SoluBL-21
# P. falciparum Dd2-2D4 = experiment: P. falciparum asexual blood stage (ABS) growth assay, SYBR Green, 72 h, wild-type parasites; assay type: cell-based, Plasmodium falciparum; settings: Plasmodium falciparum, DD2; SI Fig 16b; values on -log scale; read-out: ABS - Dd2-2D4 (converted)
# HsProRS = HsProRS (Homo sapiens, UniProt P07814); experiment: TR-FRET ligand displacement assay with tracer MAT379 (CoraFluor-1-Halo and anti-His6 antibody formats); assay type: binding; set-up: made in house; host or cells: E. coli SoluBL-21; settings: for TR-FRET dose-response, normalized signal (SI Fig 11): individual replicates
# Chain of HsProRS (P07814 996-1512): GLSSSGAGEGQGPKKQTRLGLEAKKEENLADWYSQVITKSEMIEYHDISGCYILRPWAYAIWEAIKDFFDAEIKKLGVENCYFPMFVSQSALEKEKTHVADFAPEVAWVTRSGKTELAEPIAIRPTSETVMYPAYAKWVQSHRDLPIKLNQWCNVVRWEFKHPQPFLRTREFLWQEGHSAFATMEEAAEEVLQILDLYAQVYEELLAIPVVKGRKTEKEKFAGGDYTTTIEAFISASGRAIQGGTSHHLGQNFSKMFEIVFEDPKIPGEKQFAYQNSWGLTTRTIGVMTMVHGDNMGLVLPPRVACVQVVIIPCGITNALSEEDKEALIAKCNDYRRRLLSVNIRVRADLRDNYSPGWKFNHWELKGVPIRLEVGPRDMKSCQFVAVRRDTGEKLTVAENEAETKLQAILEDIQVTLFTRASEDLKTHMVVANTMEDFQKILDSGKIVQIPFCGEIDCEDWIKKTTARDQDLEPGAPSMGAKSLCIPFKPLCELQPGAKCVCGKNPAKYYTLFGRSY
# T1 sequence (Q8I5R7 249-746): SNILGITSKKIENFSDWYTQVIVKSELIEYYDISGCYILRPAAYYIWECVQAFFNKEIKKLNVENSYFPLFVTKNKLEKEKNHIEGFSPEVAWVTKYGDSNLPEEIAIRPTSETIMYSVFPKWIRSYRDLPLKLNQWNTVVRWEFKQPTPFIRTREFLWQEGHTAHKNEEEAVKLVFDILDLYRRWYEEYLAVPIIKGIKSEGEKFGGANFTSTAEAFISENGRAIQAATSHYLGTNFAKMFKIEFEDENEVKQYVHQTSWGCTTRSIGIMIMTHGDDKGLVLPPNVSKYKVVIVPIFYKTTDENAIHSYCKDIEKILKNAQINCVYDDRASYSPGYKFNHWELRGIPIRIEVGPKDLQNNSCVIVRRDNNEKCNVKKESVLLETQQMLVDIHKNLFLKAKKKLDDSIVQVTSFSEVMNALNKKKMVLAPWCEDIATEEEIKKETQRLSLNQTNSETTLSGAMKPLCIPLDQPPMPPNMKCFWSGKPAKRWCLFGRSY
structure (smiles),measurement,setting,value
CC(C)(C)OC(=O)NCC1CCN(C(=O)Nc2nccnc2C(=O)NC2Cc3ccccc3C2)CC1 [compound 9],"dose-response signal (normalized), SI Fig 8",PfcProRS; Log[inhibitor] (M) -5.000,8.25E-02 and 7.54E-02 and 9.29E-02
same,"dose-response signal (normalized), SI Fig 8",PfcProRS; Log[inhibitor] (M) -5.301,2.45E-01 and 1.32E-01 and 2.09E-01
same,"dose-response signal (normalized), SI Fig 8",PfcProRS; Log[inhibitor] (M) -5.601,4.06E-01 and 4.09E-01 and 3.31E-01
same,"dose-response signal (normalized), SI Fig 8",PfcProRS; Log[inhibitor] (M) -5.904,5.21E-01 and 6.14E-01 and 5.87E-01
same,"dose-response signal (normalized), SI Fig 8",PfcProRS; Log[inhibitor] (M) -6.208,7.48E-01 and 8.25E-01 and 7.95E-01
same,"dose-response signal (normalized), SI Fig 8",PfcProRS; Log[inhibitor] (M) -6.509,8.42E-01 and 8.68E-01 and 7.28E-01
same,"dose-response signal (normalized), SI Fig 8",PfcProRS; Log[inhibitor] (M) -6.796,9.11E-01 and 1.04E+00 and 1.02E+00
same,"dose-response signal (normalized), SI Fig 8",PfcProRS; Log[inhibitor] (M) -7.108,9.58E-01 and 9.39E-01 and 1.04E+00
same,"dose-response signal (normalized), SI Fig 8",PfcProRS; Log[inhibitor] (M) -7.409,9.93E-01 and 1.06E+00 (2×)
same,"dose-response signal (normalized), SI Fig 8",PfcProRS; Log[inhibitor] (M) -7.710,1.14E+00 and 1.04E+00 and 9.88E-01
same,"dose-response signal (normalized), SI Fig 8",PfcProRS; Log[inhibitor] (M) -8.000,9.88E-01 and 1.04E+00 and 1.02E+00
same,"dose-response signal (normalized), SI Fig 8",PfcProRS; Log[inhibitor] (M) -8.301,9.59E-01 and 9.72E-01 and 9.39E-01
same,"dose-response signal (normalized), SI Fig 8",PfcProRS; Log[inhibitor] (M) -8.602,9.15E-01 and 9.90E-01 and 9.70E-01
same,"dose-response signal (normalized), SI Fig 8",PfcProRS; Log[inhibitor] (M) -9.000,9.95E-01 and 1.01E+00 and 9.84E-01
same,"dose-response signal (normalized), SI Fig 8",PfcProRS; Log[inhibitor] (M) -9.301,1.06E+00 and 9.86E-01 and 9.57E-01
same,PfcProRS -- best Kd,"PfcProRS; SI Fig 16a, values on -log scale",6.452
same,EC50,P. falciparum Dd2-2D4,6.58 µM
same,"HsProRS % signal at 10 μM, + 100 μM proline","HsProRS; + 100 μM proline, 10 μM",51.7%
same,Kd,"HsProRS; HsProRS (KD [nM]) mean, no added proline/ATP (-)",2510 nM
same,"normalized TR-FRET ligand displacement signal, dose-response replicates (SI Fig 6)",HsProRS; Log[inhibitor] (M) -5.000,3.85E-02 and 1.39E-01 and 8.67E-02
same,"TR-FRET dose-response, normalized signal (SI Fig 11)",HsProRS; Log[inhibitor] (M) -5.000,2.52E-01 and 2.44E-01 and 2.56E-01
same,"normalized TR-FRET ligand displacement signal, dose-response replicates (SI Fig 6)",HsProRS; Log[inhibitor] (M) -5.301,2.62E-01 and 9.25E-02 and 2.11E-01
same,"TR-FRET dose-response, normalized signal (SI Fig 11)",HsProRS; Log[inhibitor] (M) -5.301,3.68E-01 and 3.83E-01 and 3.86E-01
same,"normalized TR-FRET ligand displacement signal, dose-response replicates (SI Fig 6)",HsProRS; Log[inhibitor] (M) -5.601,2.47E-01 and 2.95E-01 and 3.23E-01
same,"TR-FRET dose-response, normalized signal (SI Fig 11)",HsProRS; Log[inhibitor] (M) -5.601,5.41E-01 and 5.42E-01 and 6.20E-01
same,"normalized TR-FRET ligand displacement signal, dose-response replicates (SI Fig 6)",HsProRS; Log[inhibitor] (M) -5.904,5.08E-01 and 5.80E-01 and 5.13E-01
same,"TR-FRET dose-response, normalized signal (SI Fig 11)",HsProRS; Log[inhibitor] (M) -5.904,6.85E-01 and 6.21E-01 and 6.49E-01
same,"normalized TR-FRET ligand displacement signal, dose-response replicates (SI Fig 6)",HsProRS; Log[inhibitor] (M) -6.208,7.02E-01 and 7.67E-01 and 6.77E-01
same,"TR-FRET dose-response, normalized signal (SI Fig 11)",HsProRS; Log[inhibitor] (M) -6.208,7.39E-01 and 7.74E-01 and 7.75E-01
same,"normalized TR-FRET ligand displacement signal, dose-response replicates (SI Fig 6)",HsProRS; Log[inhibitor] (M) -6.509,8.58E-01 and 7.92E-01 and 7.62E-01
same,"TR-FRET dose-response, normalized signal (SI Fig 11)",HsProRS; Log[inhibitor] (M) -6.509,8.32E-01 and 8.29E-01 and 7.90E-01
same,"normalized TR-FRET ligand displacement signal, dose-response replicates (SI Fig 6)",HsProRS; Log[inhibitor] (M) -6.796,9.92E-01 and 1.07E+00 and 1.01E+00
same,"TR-FRET dose-response, normalized signal (SI Fig 11)",HsProRS; Log[inhibitor] (M) -6.796,8.79E-01 and 8.03E-01 and 8.17E-01
same,"normalized TR-FRET ligand displacement signal, dose-response replicates (SI Fig 6)",HsProRS; Log[inhibitor] (M) -7.108,8.83E-01 and 1.03E+00 and 1.07E+00
same,"TR-FRET dose-response, normalized signal (SI Fig 11)",HsProRS; Log[inhibitor] (M) -7.108,8.15E-01 and 8.66E-01 and 8.33E-01
same,"normalized TR-FRET ligand displacement signal, dose-response replicates (SI Fig 6)",HsProRS; Log[inhibitor] (M) -7.409,9.70E-01 and 9.46E-01 and 9.42E-01
same,"TR-FRET dose-response, normalized signal (SI Fig 11)",HsProRS; Log[inhibitor] (M) -7.409,8.81E-01 and 9.27E-01 and 8.52E-01
same,"normalized TR-FRET ligand displacement signal, dose-response replicates (SI Fig 6)",HsProRS; Log[inhibitor] (M) -7.710,9.63E-01 and 9.72E-01 and 1.02E+00
same,"TR-FRET dose-response, normalized signal (SI Fig 11)",HsProRS; Log[inhibitor] (M) -7.710,8.59E-01 and 8.71E-01 and 8.69E-01
same,"normalized TR-FRET ligand displacement signal, dose-response replicates (SI Fig 6)",HsProRS; Log[inhibitor] (M) -8.000,9.31E-01 and 9.57E-01 and 9.75E-01
same,"TR-FRET dose-response, normalized signal (SI Fig 11)",HsProRS; Log[inhibitor] (M) -8.000,9.54E-01 and 9.12E-01 and 8.65E-01
same,"normalized TR-FRET ligand displacement signal, dose-response replicates (SI Fig 6)",HsProRS; Log[inhibitor] (M) -8.301,9.41E-01 and 8.96E-01 and 8.89E-01
same,"TR-FRET dose-response, normalized signal (SI Fig 11)",HsProRS; Log[inhibitor] (M) -8.301,9.04E-01 and 9.25E-01 and 8.91E-01
same,"normalized TR-FRET ligand displacement signal, dose-response replicates (SI Fig 6)",HsProRS; Log[inhibitor] (M) -8.602,9.58E-01 and 9.45E-01 and 9.24E-01
same,"TR-FRET dose-response, normalized signal (SI Fig 11)",HsProRS; Log[inhibitor] (M) -8.602,9.14E-01 and 8.78E-01 and 9.05E-01
same,"normalized TR-FRET ligand displacement signal, dose-response replicates (SI Fig 6)",HsProRS; Log[inhibitor] (M) -9.000,1.05E+00 and 8.77E-01 and 8.55E-01
same,"TR-FRET dose-response, normalized signal (SI Fig 11)",HsProRS; Log[inhibitor] (M) -9.000,8.65E-01 and 8.66E-01 and 9.64E-01
same,"normalized TR-FRET ligand displacement signal, dose-response replicates (SI Fig 6)",HsProRS; Log[inhibitor] (M) -9.301,8.65E-01 and 9.01E-01 and 8.87E-01
same,"TR-FRET dose-response, normalized signal (SI Fig 11)",HsProRS; Log[inhibitor] (M) -9.301,9.03E-01 and 9.18E-01 and 8.96E-01
